Columns and labels:
[1] = system: HCV 1a genotype replicon (strain H77, Huh-1a7 cells); test: HCV replicon assay, qRT-PCR, genotype 1a replicon cell line (Huh-1a7); format: cell-based; details: HCV genotype 1a replicon, HCV RNA by qRT-PCR normalized to GAPDH RNA
Description: (§1) HCV replicon cell lines (kindly provided by R. Bartenschlager) isolated from colonies as described by Lohman et al. (Lohman et al. (1999) Science 285: 110-113, expressly incorporated by reference in its entirety) and used for all experiments. One of the HCV replicon cell lines (strain Con1, genotype 1b) has the nucleic acid sequence set forth in EMBL Accession No.: AJ242651, the coding sequence of which is from nucleotides 1801 to 8406. Another replicon cell line (strain H77, genotype 1a) was constructed as described by Yi et al. (Yi et al. (2004) Journal of Virology 78(15):7904-15). […]
(§2) EC50 values of single agent compounds were determined by HCV RNA detection using quantitative RT-PCR, according to the manufacturer's instructions, with a TAQMAN® One-Step RT-PCR Master Mix Reagents Kit (Cat# AB 4309169, Applied Biosystems) on an ABI Model 7500 thermocycler. EC50 values of combinations are similarly determined by HCV RNA detection using quantitative RT-PCR. The TAQMAN primers to use for detecting and quantifying HCV RNA obtained from Integrated DNA Technologies. HCV RNA is normalized to GAPDH RNA levels in drug-treated cells, which is detected and quantified using the Human GAPDH Endogenous Control Mix (Applied Biosystems, AB 4310884E). […] Chemical agent cytotoxicity is evaluated using an MTS assay according to the manufacturer's directions (Promega). […]

[2] = system: HCV 1b genotype replicon (strain Con1, SGR 11-7 cells); test: HCV replicon assay, qRT-PCR, genotype 1b replicon cell line (SGR 11-7); format: cell-based; details: HCV genotype 1b replicon, HCV RNA by qRT-PCR normalized to GAPDH RNA
Description: as §1, §2

Allisporivir showed an EC50 [1] of under 0.2 µM and an EC50 [2] of under 0.2 µM.

Work on CC(C)CCCCN1CCOCC1 [Example 1] yielded an EC50 ([1]; Hepatitis C virus) of under 0.2 µM and an EC50 ([2]; Hepatitis C virus) of under 0.2 µM.
